Test results taken from US6124328A, “Methods and compositions for stimulating neurite growth” (Vertex Pharmaceuticals Incorporated, priority 1997, dated 2000).

Tests used:
[1] = test system: PC12 rat pheochromocytoma cells; settings: Lyons et al., cited from earlier work
[2] = test system: dorsal root ganglia (sensory ganglia); settings: Lyons et al., cited from earlier work
ryanodine receptor (RyR) = settings: cited from earlier work
[3] = test system: inositol 1,4,5-triphosphate receptor (IP3 R); settings: cited from earlier work
FKBP12 = FKBP12 (Homo sapiens, UniProt P62942); assay: FKBP12 Binding Assay: inhibition of FKBP rotomase activity (cis-N-succinyl-Ala-Ala-Pro-Phe-p-nitroanilide / chymotrypsin), apparent Ki; format: biochemical; settings: compound 0.1 nM-10 μM
Sequence of FKBP12 (P62942 whole entry): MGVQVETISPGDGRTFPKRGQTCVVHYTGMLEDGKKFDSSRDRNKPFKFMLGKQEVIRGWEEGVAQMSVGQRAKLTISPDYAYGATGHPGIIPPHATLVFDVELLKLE
Description: Preferably, the assay measures inhibition of FKBP12 rotomase activity. Such an assay has also been described by M. W. Harding et al., supra and by J. J. Siekierka et al., supra. In this assay the isomerization of an artificial substrate--N-succinyl-Ala-Ala-Pro-Phe-p-nitroanilide--is followed spectrophotometrically. The assay includes the cis form of the substrate, FKBP12, the inhibitor and chymotrypsin. Chymotrypsin is able to cleave p-nitroanilide from the trans form of the substrate, but not the cis form. Release of p-nitroanilide is measured.
In this assay various quantities of FKBP12 binding compound (0.1 nM-10 μM) were added to cis-N-succinyl-Ala-Ala-Pro-Phe-p-nitroanilide in the presence of FKBP12 and chymotrypsin. FKBP12 converts the cis form of the substrate to the trans form. This allows chymotrypsin to cleave p-nitroanilide from the substrate. Release of p-nitroanilide was measured spectrophotometrically.

| Structure (SMILES) | Ki (FKBP12; Table 2, formula II') | further results |
| --- | --- | --- |
| C=CC[C@@H]1/C=C(\C)C[C@H](C)C[C@H](OC)[C@H]2O[C@@](O)(C(=O)C(=O)N3CCCC[C@H]3C(=O)O[C@H](/C(C)=C/[C@@H]3CC[C@@H](O)[C@H](OC)C3)[C@H](C)[C@@H](O)CC1=O)[C@H](C)C[C@@H]2OC [FK-506] | – | neurite outgrowth (synergy with NGF) ([1]; with NGF, rat pheochromocytoma cell line): acts synergistically with nerve growth factor (NGF) in stimulating neurite outgrowth; neurotrophic effects in sensory ganglia [2]: demonstrated similar neurotrophic effects; dissociating FKBP12 from the receptor (ryanodine receptor (RyR)): capable of dissociating FKBP12 from the receptor; dissociating FKBP12 from the receptor [3]: capable of dissociating FKBP12 from the receptor |
| COc1cc(C(=O)C(=O)N2CCCC[C@H]2C(=O)OC(C)c2ccc(OCc3ccncc3)c(OCc3ccncc3)c2OC(C)C)cc(OC)c1OC (some centres unmarked) [compound 84] | 54 nM | – |
| COc1cc(C(=O)C(=O)N2CCCC[C@H]2C(=O)OC(C)c2cc(OCc3ccsc3)c(OCc3ccsc3)c(OCc3ccsc3)c2)cc(OC)c1OC (some centres unmarked) [compound 83] | > 1000 nM | – |
| COc1cc(C(=O)C(=O)N2CCCC[C@H]2C(=O)OC(CCCc2ccccc2)CCCc2ccc(C(=O)N3CCN(Cc4ccccc4)CC3)cc2)cc(OC)c1OC (some centres unmarked) [compound 58] | 30 nM | – |
| COc1cc(C(=O)C(=O)N2CCCC[C@H]2C(=O)OC(CCCc2ccccc2)c2ccc(OCc3ccncc3)c(OCc3ccncc3)c2OCc2ccncc2)cc(OC)c1OC (some centres unmarked) [compound 67] | 46 nM | – |
| COc1cc(C(=O)C(=O)N2CCCC[C@H]2C(=O)OCCCC(C)C2CCCCC2)cc(OC)c1OC (some centres unmarked) | – | Ki (FKBP12; Table 1a, formula Ia): 90 nM |
| COc1cc(C(=O)C(=O)N2CCCC[C@H]2C(=O)OC(CCCc2ccccc2)c2cccc(C(=O)c3ccncc3)c2)cc(OC)c1OCc1ccccc1 (some centres unmarked) [compound 94] | 25 nM | – |
| CC(C)C(=O)C(=O)N1CCCC[C@H]1C(=O)OC(CCCc1cccnc1)CCCc1cccnc1 [compound 109] | 1500 nM | – |
| COc1cc(C(=O)C(=O)N2CCC[C@H]2C(=O)OC(C)c2cc(OCc3ccncc3)c(OCc3ccncc3)c(OCc3ccncc3)c2)cc(OC)c1OC (some centres unmarked) [compound 87] | 360 nM | – |
| CO[C@H]1C[C@@H]2CC[C@@H](C)[C@@](O)(O2)C(=O)C(=O)N2CCCC[C@H]2C(=O)O[C@H]([C@H](C)C[C@@H]2CC[C@@H](O)[C@H](OC)C2)CC(=O)[C@H](C)/C=C(\C)[C@@H](O)[C@@H](OC)C(=O)[C@H](C)C[C@H](C)/C=C/C=C/C=C/1C [rapamycin] | – | effect on FK-506-induced neurite outgrowth ([1]; with FK-506): did not inhibit the effects of FK-506 on neurite outgrowth; neurotrophic effect in combination with FK-506 ([1]; with FK-506): additive effect with FK-506; effect on FK-506 neurotrophic effects in sensory ganglia ([2]; with FK-506): those effects were blocked by rapamycin; dissociating FKBP12 from the receptor (ryanodine receptor (RyR)): capable of dissociating FKBP12 from the receptor; dissociating FKBP12 from the receptor [3]: capable of dissociating FKBP12 from the receptor |

More lines, in order of falling Ki (FKBP12; Table 2, formula II'), values ahead:

| Ki (FKBP12; Table 2, formula II') | Structure (SMILES) | further results |
| --- | --- | --- |
| 17 nM | CCCC(OC(=O)[C@@H]1CCCCN1C(=O)C(=O)c1cc(OC)c(OC)c(OC)c1)c1cc(OCc2ccncc2)c(OCc2ccncc2)c(OCc2ccncc2)c1 (some centres unmarked) [compound 80] | – |
| 14 nM | C=CCC(OC(=O)[C@@H]1CCCCN1C(=O)C(=O)c1cc(OC)c(OC)c(OC)c1)c1cc(OCc2ccncc2)c(OCc2ccncc2)c(OCc2ccncc2)c1 (some centres unmarked) [compound 76] | – |
| 13 nM | COc1cc(C(=O)C(=O)N2CCCC[C@H]2C(=O)OC(c2cccnc2)c2cccc(OCc3ccncc3)c2)cc(OC)c1OC (some centres unmarked) [compound 63] | – |
| 12 nM | COc1cc(C(=O)C(=O)N2CCCC[C@H]2C(=O)OC(C)c2cc(OCc3ccncc3)cc(OCc3ccncc3)c2)cc(OC)c1OC (some centres unmarked) [compound 72] | – |
| 12 nM | C=CCC(OC(=O)[C@@H]1CCCCN1C(=O)C(=O)c1cc(OC)c(OC)c(OC)c1)c1cc(OCc2ccncc2)c(OCc2ccncc2)c(OCc2ccncc2)c1 (some centres unmarked) [compound 118] | – |
| 9 nM | COc1cc(C(=O)C(=O)N2CCCC[C@H]2C(=O)OC(CCCc2ccccc2)CCCn2ccc3cccnc32)cc(OC)c1OC (some centres unmarked) [compound 23] | – |
| 7.5 nM | COc1ccc(C(=O)C(=O)N2CCCC[C@H]2C(=O)OC(CCCc2ccccc2)c2cccc(OCc3ccncc3)c2)cc1OC (some centres unmarked) [compound 93] | – |
| 7 nM | C=CCOCCCCC(CCCc1ccccc1)OC(=O)[C@@H]1CCCCN1C(=O)C(=O)c1cc(OC)c(OC)c(OC)c1 (some centres unmarked) [compound 45] | – |
| 6.8 nM | COc1cc(C(=O)C(=O)N2CCCC[C@H]2C(=O)OC(CCCc2ccccc2)c2cccc(CO)c2)cc(OC)c1OC (some centres unmarked) [compound 37] | – |
| 6.5 nM | COc1cc(C(=O)C(=O)N2CCCC[C@H]2C(=O)OC(CCCc2ccccc2)CCCc2ccccn2)cc(OC)c1OC (some centres unmarked) [compound 20] | – |
| 2.3 nM | C=CC(OC(=O)[C@@H]1CCCCN1C(=O)C(=O)c1cc(OC)c(OC)c(OC)c1)c1cc(OCc2ccncc2)c(OCc2ccncc2)c(OCc2ccncc2)c1 (some centres unmarked) [compound 79] | – |
| 0.39 nM | COc1cc(C(=O)C(=O)N2CCCC[C@H]2C(=O)OC(c2cc(OCc3ccncc3)c(OCc3ccncc3)c(OCc3ccncc3)c2)C(C)C)cc(OC)c1OC (some centres unmarked) [compound 115] | – |
